Experimental data: US20090181898A1, “ABUSE-RESISTANT A[…]” (SHIRE LLC, priority 2002, published 2009)
Where “and” joins values, the source holds several entries; their conditions need not be identical. Identical values can stand only once.

Assays:
[1] = Clinical pharmacokinetics, 25 and 75 mg, compared to Adderall XR and Dexedrine Spansule
[2] = Kitchen tests: water, acid (vinegar), base (baking powder, baking soda), boiling; type: physicochemical; conditions: for free amphetamine released: heated to boiling for 20-60 minutes
Description: “Kitchen tests” were performed in anticipation of attempts by illicit chemists to release free amphetamine from the amphetamine conjugate.

[3] = human, in vivo, po, 75 mg, L-lysine-d-amphetamine intact conjugate concentration, oral 75 mg L-lysine-d-amphetamine, individual subjects
[4] = human, in vivo, po, 75 mg, L-lysine-d-amphetamine intact conjugate concentration, oral 75 mg L-lysine-d-amphetamine, mean
[5] = human, oral 25 mg L-lysine-d-amphetamine, individual subjects
[6] = human, oral 75 mg L-lysine-d-amphetamine, individual subjects

Work on CC(Cc1ccccc1)NC(=O)C(N)CCCCN [L-lysine-d-amphetamine, 2,6-diaminohexanoic acid-(1-methyl-2-phenylethyl)-amide] yielded a concentration at 3 h ([1]; human, in vivo, po, 75 mg, L-lysine-d-amphetamine intact conjugate concentration, oral 75 mg L-lysine-d-amphetamine, 3 h, mean) of 2.6 ng/mL, a concentration at 4 h ([1]; human, in vivo, po, 75 mg, L-lysine-d-amphetamine intact conjugate concentration, oral 75 mg L-lysine-d-amphetamine, 4 h, mean) of 0.8 ng/mL and a concentration at 5 h ([1]; human, in vivo, po, 75 mg, L-lysine-d-amphetamine intact conjugate concentration, oral 75 mg L-lysine-d-amphetamine, 5 h, individual subjects) of 0 ng/mL. It also gave a concentration at 5 h ([1]; human, in vivo, po, 75 mg, L-lysine-d-amphetamine intact conjugate concentration, oral 75 mg L-lysine-d-amphetamine, 5 h, mean) of 0 ng/mL, a concentration at 6 h ([1]; human, in vivo, po, 75 mg, L-lysine-d-amphetamine intact conjugate concentration, oral 75 mg L-lysine-d-amphetamine, 6 h, individual subjects) of 0 ng/mL and a concentration at 6 h ([1]; human, in vivo, po, 75 mg, L-lysine-d-amphetamine intact conjugate concentration, oral 75 mg L-lysine-d-amphetamine, 6 h, mean) of 0 ng/mL. For the same molecule, the concentration at 7 h ([1]; human, in vivo, po, 75 mg, L-lysine-d-amphetamine intact conjugate concentration, oral 75 mg L-lysine-d-amphetamine, 7 h, individual subjects) was 0 ng/mL, the concentration at 7 h ([1]; human, in vivo, po, 75 mg, L-lysine-d-amphetamine intact conjugate concentration, oral 75 mg L-lysine-d-amphetamine, 7 h, mean) was 0 ng/mL and the concentration at 8 h ([1]; human, in vivo, po, 75 mg, L-lysine-d-amphetamine intact conjugate concentration, oral 75 mg L-lysine-d-amphetamine, 8 h, individual subjects) was 0 ng/mL. The concentration at 8 h ([1]; human, in vivo, po, 75 mg, L-lysine-d-amphetamine intact conjugate concentration, oral 75 mg L-lysine-d-amphetamine, 8 h, mean) was 0 ng/mL, the concentration at 10 h ([1]; human, in vivo, po, 75 mg, L-lysine-d-amphetamine intact conjugate concentration, oral 75 mg L-lysine-d-amphetamine, 10 h, individual subjects) was 0 ng/mL and the concentration at 10 h ([1]; human, in vivo, po, 75 mg, L-lysine-d-amphetamine intact conjugate concentration, oral 75 mg L-lysine-d-amphetamine, 10 h, mean) was 0 ng/mL. The concentration at 12 h ([1]; human, in vivo, po, 75 mg, L-lysine-d-amphetamine intact conjugate concentration, oral 75 mg L-lysine-d-amphetamine, 12 h, individual subjects) was 0 ng/mL, the concentration at 12 h ([1]; human, in vivo, po, 75 mg, L-lysine-d-amphetamine intact conjugate concentration, oral 75 mg L-lysine-d-amphetamine, 12 h, mean) was 0 ng/mL and the concentration at 16 h [1, 3] was 0 ng/mL. For the same molecule, the concentration at 16 h [1, 4] was 0 ng/mL, the concentration at 24 h [1, 3] was 0 ng/mL and the concentration at 24 h [1, 4] was 0 ng/mL. For the same molecule, the concentration at 48 h [1, 3] was 0 ng/mL, the concentration at 48 h [1, 4] was 0 ng/mL and the concentration at 72 h [1, 3] was 0 ng/mL. For the same molecule, the concentration at 72 h [1, 4] was 0 ng/mL, the “L-lysine-d-amphetamine intact conjugate concentration” value ([1]; human, oral 25 mg L-lysine-d-amphetamine, 1 h, individual subjects) was 9.2 ng/mL and 10.9 ng/mL and 11.2 ng/mL and 15.2 ng/mL and 12.5 ng/mL and 9.1 ng/mL and 2.7 ng/mL and 20.1 ng/mL and 10.5 ng/mL and 10.8 ng/mL and the “L-lysine-d-amphetamine intact conjugate concentration” value ([1]; human, oral 25 mg L-lysine-d-amphetamine, 2 h, individual subjects) was 2.1 ng/mL and 3.1 ng/mL and 1.4 ng/mL and 2.5 ng/mL and 2.9 ng/mL and 1.9 ng/mL and 4.0 ng/mL and 2.3 ng/mL and 0 ng/mL and 1.7 ng/mL. The “L-lysine-d-amphetamine intact conjugate concentration” value ([1]; human, oral 25 mg L-lysine-d-amphetamine, 3 h, individual subjects) was 0 ng/mL, the “L-lysine-d-amphetamine intact conjugate concentration” value ([1]; human, oral 25 mg L-lysine-d-amphetamine, 4 h, individual subjects) was 0 ng/mL and the “L-lysine-d-amphetamine intact conjugate concentration” value ([1]; human, oral 25 mg L-lysine-d-amphetamine, 5 h, individual subjects) was 0 ng/mL. The “L-lysine-d-amphetamine intact conjugate concentration” value ([1]; human, oral 25 mg L-lysine-d-amphetamine, 6 h, individual subjects) was 0 ng/mL, the “L-lysine-d-amphetamine intact conjugate concentration” value ([1]; human, oral 25 mg L-lysine-d-amphetamine, 7 h, individual subjects) was 0 ng/mL and the “L-lysine-d-amphetamine intact conjugate concentration” value ([1]; human, oral 25 mg L-lysine-d-amphetamine, 8 h, individual subjects) was 0 ng/mL. For the same molecule, the “L-lysine-d-amphetamine intact conjugate concentration” value ([1]; human, oral 25 mg L-lysine-d-amphetamine, 10 h, individual subjects) was 0 ng/mL, the “L-lysine-d-amphetamine intact conjugate concentration” value ([1]; human, oral 25 mg L-lysine-d-amphetamine, 12 h, individual subjects) was 0 ng/mL and the “L-lysine-d-amphetamine intact conjugate AUCinf” value [1, 5] was 10.62 ng·h/mL and 12.83 ng·h/mL and 11.64 ng·h/mL and 17.66 ng·h/mL and 12.65 ng·h/mL and 9.759 ng·h/mL and 19.56 ng·h/mL and 13.3 ng·h/mL. The “L-lysine-d-amphetamine intact conjugate AUClast” value [1, 5] was 9.18 ng·h/mL and 10.41 ng·h/mL and 10.95 ng·h/mL and 16.31 ng·h/mL and 10.68 ng·h/mL and 8.583 ng·h/mL and 5.439 ng·h/mL and 18.51 ng·h/mL and 10.77 ng·h/mL and 12.35 ng·h/mL, the “L-lysine-d-amphetamine intact conjugate Cmax” value [1, 5] was 9.18 ng/mL and 10.9 ng/mL and 11.2 ng/mL and 15.2 ng/mL and 12.5 ng/mL and 9.05 ng/mL and 6.18 ng/mL and 20.1 ng/mL and 10.5 ng/mL and 10.8 ng/mL and the “L-lysine-d-amphetamine intact conjugate Tmax” value [1, 5] was 1.5 h. The “L-lysine-d-amphetamine intact conjugate AUCinf” value [1, 6] was 52.5 ng·h/mL and 87.0 ng·h/mL and 45.0 ng·h/mL and 33.0 ng·h/mL and 44.9 ng·h/mL and 52.3 ng·h/mL and 34.2 ng·h/mL and 31.4 ng·h/mL and 102.9 ng·h/mL and 111.7 ng·h/mL, the “L-lysine-d-amphetamine intact conjugate AUClast” value [1, 6] was 51.2 ng·h/mL and 86.1 ng·h/mL and 44.2 ng·h/mL and 32.0 ng·h/mL and 43.7 ng·h/mL and 50.4 ng·h/mL and 30.9 ng·h/mL and 29.8 ng·h/mL and 102.1 ng·h/mL and 110.8 ng·h/mL and the “L-lysine-d-amphetamine intact conjugate Cmax” value [1, 6] was 48.0 ng/mL and 80.1 ng/mL and 40.5 ng/mL and 29.0 ng/mL and 41.5 ng/mL and 26.5 ng/mL and 30.8 ng/mL and 23.4 ng/mL and 127.0 ng/mL and 88.9 ng/mL. For the same molecule, the “L-lysine-d-amphetamine intact conjugate Tmax” value [1, 6] was 1.5 h, the “Intact conjugate as percent of total drug absorption (AUCinf-molar basis)” value ([1]; humans, oral, 25 mg) was 1.6% and the “Bioavailability over twelve hours vs Adderall XR® (d-amphetamine plus l-amphetamine levels)” value ([1]; humans, oral, 75 mg) was “approximately equivalent”. The “Bioavailability over twelve hours vs Dexedrine Spansule®” value ([1]; humans, oral, 75 mg) was “over twenty percent higher”, the “Intact conjugate as percent of total drug absorption (AUCinf-molar basis)” value ([1]; humans, oral, 75 mg) was 2.0% and the “Bioavailability (AUCinf) of d-amphetamine vs both extended release amphetamine products” value ([1]; humans, oral, 75 mg vs Adderall XR® 35 mg and Dexedrine Spansule® 30 mg) was “approximately equivalent”. For the same molecule, the “Time of peak levels of intact conjugate” value ([1]; humans, oral, 25 and 75 mg) was “about one hour”, the “Elimination of intact conjugate” value ([1]; humans, oral, even at the highest dose) was “no detectable concentrations present by five hours” and the free amphetamine released ([2]; Baking Powder) was 0%. It also gave a free amphetamine released ([2]; Baking Soda) of 0%, a free amphetamine released ([2]; Tap Water) of 0% and a free amphetamine released ([2]; Vinegar) of 0%. For the same molecule, the “Release of free amphetamine in kitchen tests” value ([2]; water, vinegar, baking powder, baking soda, boiling 20-60 minutes) was “no detectable free amphetamine”.
